Source: patent publication US11787762B2, “Tetralin and tetrahydroquinoline compounds as inhibitors of HIF-2alpha” (ARCUS BIOSCIENCES, INC., priority 2020, dated 2023)

Key:
[1] = molecular target: T1, Histidine tagged HIF-2α protein containing PAS-B domain (240-350) (Homo sapiens, UniProt Q99814); assay: HIF-2α Scintillation Proximity Assay (SPA) binding assay; conditions: 50 nM HIF-2α protein, 25 nM 3H-tracer
T1 construct: HIF-2α protein containing PAS-B domain (240-350); made in house
Experimental: HIF-2α Scintillation Proximity Assay (SPA) Binding Assay:
Tritium labeled compound N-(3-chlorophenyl)-4-nitro-2,1,3-benzoxadiazol-5-amine was obtained from American Radiolabeled Chemicals Inc. and copper chelate PVT SPA beads were from PerkinElmer (Cat #RPNQ0095). Histidine tagged HIF-2α protein containing PAS-B domain (240-350) was prepared and purified in house.
Compounds solubilized in DMSO were dispensed into a white 384-well polystyrene non-binding flat clear bottom plate (Greiner Bio-One, Cat #781903) using an HP D300 dispenser. Ten microliters of HIS-tagged HIF-2α protein in buffer (25 mM Tris-HCl, pH 7.4, 150 mM NaCl, 0.15% BSA and 0.001% Tween 20) was added to the compound wells and allowed to incubate for 1 hour at room temperature. Ten microliters of SPA bead mix were added to the wells and incubated for an additional 45 minutes, followed by 10 ul of ^3H-tracer solution. Final assay conditions comprised 50 nM HIF-2α protein, 25 nM radiolabeled tracer and 3 ug beads per well with compounds in 2% DMSO. The plate was read using a MicroBeta Microplate Counter (PerkinElmer) for luminescence detection. The IC50 values of the test compounds were determined from compound dose response curves fitted using a standard four parameter fit equation and are reported in Table 1, Table 2, and Table 3.

HIF-2α = molecular target: T2, HIF-2α (Homo sapiens, UniProt Q99814); assay: HIF-2α luciferase reporter assay in HIF-Luc-786-O cells; assay type: cell-based
T2 construct: host or cells: 786-O cells stably transduced with Cignal Lenti HIF Luc Reporter (only the reporter was introduced, not HIF-2α)
Procedure, shortened: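 Luminescence (ONE-Glo) read after 20 h compound incubation, top concentration 50 uM, 1% DMSO, 20,000 HIF-Luc-786-O cells per well. Activity scaled between DMSO maximum and no-cell baseline; four-parameter dose-response fits yielded IC50.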

T2 sequence (Q99814 whole entry): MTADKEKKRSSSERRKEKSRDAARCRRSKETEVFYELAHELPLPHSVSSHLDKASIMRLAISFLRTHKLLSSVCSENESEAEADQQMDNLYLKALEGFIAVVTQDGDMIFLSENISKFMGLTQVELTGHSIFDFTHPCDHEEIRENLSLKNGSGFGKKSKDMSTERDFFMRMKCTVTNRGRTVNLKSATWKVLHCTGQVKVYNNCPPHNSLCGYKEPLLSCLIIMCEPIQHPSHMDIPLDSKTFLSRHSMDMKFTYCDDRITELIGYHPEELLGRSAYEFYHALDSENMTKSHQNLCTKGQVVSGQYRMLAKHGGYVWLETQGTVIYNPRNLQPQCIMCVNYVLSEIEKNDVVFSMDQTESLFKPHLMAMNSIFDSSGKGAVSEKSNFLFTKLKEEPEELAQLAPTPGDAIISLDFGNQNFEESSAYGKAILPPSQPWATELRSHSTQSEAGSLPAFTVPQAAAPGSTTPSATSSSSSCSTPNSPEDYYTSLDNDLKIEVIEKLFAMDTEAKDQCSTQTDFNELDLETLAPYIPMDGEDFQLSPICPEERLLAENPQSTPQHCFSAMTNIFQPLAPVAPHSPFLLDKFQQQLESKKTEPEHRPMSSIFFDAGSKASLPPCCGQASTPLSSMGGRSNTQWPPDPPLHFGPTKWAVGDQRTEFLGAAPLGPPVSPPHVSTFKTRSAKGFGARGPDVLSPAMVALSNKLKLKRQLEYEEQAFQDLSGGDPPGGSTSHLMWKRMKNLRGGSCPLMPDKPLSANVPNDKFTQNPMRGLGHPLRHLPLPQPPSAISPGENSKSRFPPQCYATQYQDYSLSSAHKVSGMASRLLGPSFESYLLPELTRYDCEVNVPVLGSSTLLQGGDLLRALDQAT
T1 sequence (Q99814 240-350): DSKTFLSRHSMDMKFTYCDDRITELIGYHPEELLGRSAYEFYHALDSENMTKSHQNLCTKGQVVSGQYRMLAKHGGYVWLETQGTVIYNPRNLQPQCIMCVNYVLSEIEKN

SMILES	IC50 (HIF-2α; Table 3, 20 hours incubation)	also measured
Cc1c(N2CCC(F)(F)c3cc(F)cc(C#N)c32)cnc(C(C)(F)F)c1F [Example 126, 1-[6-(1,1-Difluoroethyl)-5-fluoro-4-methylpyridin-3-yl]-4,4,6-trifluoro-2,3-dihydroquinoline-8-carbonitrile]		IC50 ([1]; Table 2): < 100 nM; IC50 (HIF-2α; Table 2, 20 hours incubation): < 100 nM
N#Cc1cc(F)cc2c1N(c1ccc(C(F)(F)F)c(F)c1C#N)CCC2O (stereo not shown) [Example 119]		IC50 ([1]; Table 1): > 1000 nM; IC50 (HIF-2α; Table 1, 20 hours incubation): 100 to 1000 nM
N#Cc1cc(F)cc2c1N(c1ccc(C(F)(F)F)c(F)c1C#N)CCC2(F)F [Example 125, 1-[2-cyano-3-fluoro-4-(trifluoromethyl)phenyl]-4,4,6-trifluoro-2,3-dihydroquinoline-8-carbonitrile]		IC50 ([1]; Table 2): < 100 nM; IC50 (HIF-2α; Table 2, 20 hours incubation): < 100 nM
CS(=O)(=O)c1ccc([C@H]2NCCc3cc(F)cc(F)c32)c2c1[C@H](O)C(F)(F)C2 [Example 111]		IC50 ([1]; Table 1): > 1000 nM; IC50 (HIF-2α; Table 1, 20 hours incubation): > 1000 nM
Cc1ncn(C)c1-c1ccc([C@H]2CC[C@H](F)c3cc(F)cc(C#N)c32)c2c1[C@H](O)C(F)(F)C2 [Example 232, (5S,8R)-8-[(1S)-7-(3,5-dimethylimidazol-4-yl)-2,2-difluoro-1-hydroxy-1,3-dihydroinden-4-yl]-3,5-difluoro-5,6,7,8-tetrahydronaphthalene-1-carbonitrile]	< 100 nM	
N#Cc1cc(F)cc2c1[C@@H](c1ccc(-c3c[nH]c4ncccc34)c3c1CC(F)(F)[C@H]3O)CC[C@@H]2F [Example 243, (5S,8R)-8-[(1S)-2,2-difluoro-1-hydroxy-7-{1H-pyrrolo[2,3-b]pyridin-3-yl}-2,3-dihydro-1H-inden-4-yl]-3,5-difluoro-5,6,7,8-tetrahydronaphthalene-1-carbonitrile]	100 to 1000 nM	
Cc1scnc1-c1ccc([C@H]2CC[C@H](F)c3cc(F)cc(C#N)c32)c2c1[C@H](O)C(F)(F)C2 [Example 192, (5S,8R)-8-[(1S)-2,2-difluoro-1-hydroxy-7-(5-methyl-1,3-thiazol-4-yl)-1,3-dihydroinden-4-yl]-3,5-difluoro-5,6,7,8-tetrahydronaphthalene-1-carbonitrile]	< 100 nM	
N#Cc1cc(F)cc2c1[C@@H](c1ccc(-c3cccn4ccnc34)c3c1CC(F)(F)[C@H]3O)CC[C@@H]2F [Example 245, (5S,8R)-8-[(1S)-2,2-difluoro-1-hydroxy-7-{imidazo[1,2-a]pyridin-8-yl}-2,3-dihydro-1H-inden-4-yl]-3,5-difluoro-5,6,7,8-tetrahydronaphthalene-1-carbonitrile]	100 to 1000 nM	
Cc1nc(N)ncc1-c1ccc([C@H]2CC[C@H](F)c3cc(F)cc(C#N)c32)c2c1[C@H](O)C(F)(F)C2 [Example 168, (5S,8R)-8-[(1S)-7-(2-amino-4-methylpyrimidin-5-yl)-2,2-difluoro-1-hydroxy-1,3-dihydroinden-4-yl]-3,5-difluoro-5,6,7,8-tetrahydronaphthalene-1-carbonitrile]	< 100 nM	
Cc1ncc(-c2c(F)cc([C@H]3CC[C@H](F)c4cc(F)cc(C#N)c43)c3c2[C@H](O)C(F)(F)C3)c(N)n1 [Example 205, (5S,8R)-8-[(1S)-7-(4-amino-2-methylpyrimidin-5-yl)-2,2,6-trifluoro-1-hydroxy-2,3-dihydro-1H-inden-4-yl]-3,5-difluoro-5,6,7,8-tetrahydronaphthalene-1-carbonitrile]	< 100 nM	
Cn1nccc1-c1ccc([C@H]2C[C@H](F)[C@H](F)c3cc(F)cc(C#N)c32)c2c1[C@H](O)C(F)(F)C2 [Example 217, (5R,6S,8R)-8-[(1S)-2,2-difluoro-1-hydroxy-7-(1-methyl-1H-pyrazol-5-yl)-2,3-dihydro-1H-inden-4-yl]-3,5,6-trifluoro-5,6,7,8-tetrahydronaphthalene-1-carbonitrile]	< 100 nM	
N#Cc1cc(F)cc2c1[C@@H](c1ccc(-c3cnc4ccccn34)c3c1CC(F)(F)[C@H]3O)CC[C@@H]2F [Example 239, (5S,8R)-8-[(1S)-2,2-difluoro-1-hydroxy-7-imidazo[1,2-a]pyridin-3-yl-1,3-dihydroinden-4-yl]-3,5-difluoro-5,6,7,8-tetrahydronaphthalene-1-carbonitrile]	< 100 nM	
Cc1ccc(-c2ccc([C@H]3CC[C@H](F)c4cc(F)cc(C#N)c43)c3c2[C@H](O)C(F)(F)C3)c(N)c1 [Example 195, (5S,8R)-8-[(1S)-7-(2-amino-4-methylphenyl)-2,2-difluoro-1-hydroxy-1,3-dihydroinden-4-yl]-3,5-difluoro-5,6,7,8-tetrahydronaphthalene-1-carbonitrile]	< 100 nM	
Cc1cccnc1-c1ccc([C@H]2CC[C@H](F)c3cc(F)cc(C#N)c32)c2c1[C@H](O)C(F)(F)C2 [Example 244, (5S,8R)-8-[(1S)-2,2-difluoro-1-hydroxy-7-(3-methylpyridin-2-yl)-2,3-dihydro-1H-inden-4-yl]-3,5-difluoro-5,6,7,8-tetrahydronaphthalene-1-carbonitrile]	< 100 nM	
N#Cc1cc(F)cc2c1[C@@H](c1ccc(-c3cnc(C(N)=O)s3)c3c1CC(F)(F)[C@H]3O)CC[C@@H]2F [Example 180, 5-[(3S)-7-[(1R,4S)-8-cyano-4,6-difluoro-1,2,3,4-tetrahydronaphthalen-1-yl]-2,2-difluoro-3-hydroxy-1,3-dihydroinden-4-yl]-1,3-thiazole-2-carboxamide]	< 100 nM	
N#Cc1cc(F)cc2c1[C@@H](c1ccc(-c3cnc4cccnn34)c3c1CC(F)(F)[C@H]3O)CC[C@@H]2F [Example 237, (5S,8R)-8-[(1S)-2,2-difluoro-1-hydroxy-7-imidazo[1,2-b]pyridazin-3-yl-1,3-dihydroinden-4-yl]-3,5-difluoro-5,6,7,8-tetrahydronaphthalene-1-carbonitrile]	< 100 nM	
Cc1ncc(-c2ccc([C@H]3C[C@H](F)[C@H](F)c4cc(F)cc(C#N)c43)c3c2[C@H](O)C(F)(F)C3)c(N)n1 [Example 221, (5R,6S,8R)-8-[(1S)-7-(4-amino-2-methylpyrimidin-5-yl)-2,2-difluoro-1-hydroxy-2,3-dihydro-1H-inden-4-yl]-3,5,6-trifluoro-5,6,7,8-tetrahydronaphthalene-1-carbonitrile]	< 100 nM	
Cn1cc(-c2ccc([C@H]3CC[C@H](F)c4cc(F)cc(C#N)c43)c3c2[C@H](O)C(F)(F)C3)nn1 [Example 146, (5S,8R)-8-[(1S)-2,2-difluoro-1-hydroxy-7-(1-methyl-1H-1,2,3-triazol-4-yl)-2,3-dihydro-1H-inden-4-yl]-3,5-difluoro-5,6,7,8-tetrahydronaphthalene-1-carbonitrile]	< 100 nM	
N#Cc1cc(F)cc2c1[C@@H](c1ccc(-c3cnccc3F)c3c1CC(F)(F)[C@H]3O)CC[C@@H]2F [Example 163, (5S,8R)-8-[(1S)-2,2-difluoro-7-(4-fluoropyridin-3-yl)-1-hydroxy-2,3-dihydro-1H-inden-4-yl]-3,5-difluoro-5,6,7,8-tetrahydronaphthalene-1-carbonitrile]	< 100 nM	
N#Cc1cc(F)cc2c1[C@@H](c1ccc(-c3cnncc3N)c3c1CC(F)(F)[C@H]3O)CC[C@@H]2F [Example 178, (5S,8R)-8-[(1S)-7-(5-aminopyridazin-4-yl)-2,2-difluoro-1-hydroxy-1,3-dihydroinden-4-yl]-3,5-difluoro-5,6,7,8-tetrahydronaphthalene-1-carbonitrile]	100 to 1000 nM	
Cc1nc(S(C)(=O)=O)ccc1-c1ccc([C@H]2CC[C@H](F)c3cc(F)cc(C#N)c32)c2c1[C@H](O)C(F)(F)C2 [Example 198, (5S,8R)-8-[(1S)-2,2-difluoro-1-hydroxy-7-(2-methyl-6-methylsulfonylpyridin-3-yl)-1,3-dihydroinden-4-yl]-3,5-difluoro-5,6,7,8-tetrahydronaphthalene-1-carbonitrile]	100 to 1000 nM	
Cc1nc(C#N)ncc1-c1c(F)cc([C@H]2CC[C@H](F)c3cc(F)cc(C#N)c32)c2c1[C@H](O)C(F)(F)C2 [Example 206, 5-[(3S)-7-[(1R,4S)-8-cyano-4,6-difluoro-1,2,3,4-tetrahydronaphthalen-1-yl]-2,2,5-trifluoro-3-hydroxy-2,3-dihydro-1H-inden-4-yl]-4-methylpyrimidine-2-carbonitrile]	< 100 nM	
CC(C)(O)c1ccc([C@H]2CC[C@H](F)c3cc(F)cc(C#N)c32)c2c1[C@H](O)C(F)(F)C2 [Example 226, (5S,8R)-8-[(1S)-2,2-difluoro-1-hydroxy-7-(2-hydroxypropan-2-yl)-1,3-dihydroinden-4-yl]-3,5-difluoro-5,6,7,8-tetrahydronaphthalene-1-carbonitrile]	< 100 nM	
N#Cc1cc(F)cc2c1[C@@H](c1ccc(-c3ccc(F)cc3N)c3c1CC(F)(F)[C@H]3O)CC[C@@H]2F [Example 194, (5S,8R)-8-[(1S)-7-(2-amino-4-fluorophenyl)-2,2-difluoro-1-hydroxy-1,3-dihydroinden-4-yl]-3,5-difluoro-5,6,7,8-tetrahydronaphthalene-1-carbonitrile]	< 100 nM	
